Assay results published in ChEMBL document CHEMBL1201862, “PubChem BioAssay data set” (2004).
Several values for one entry are separate records, joined by “and”; a condition that tells them apart may be missing. Identical values can stand only once.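 Briefly, cells in 96-well plates were exposed to five compound concentrations for 48 h, and endpoints were estimated by linear interpolation. The concentration for 50% growth inhibition is given as GI50.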 Activity calls are given as the source filed them. Rule as the data show it: active = GI50 up to about 1.1 µM and inactive = higher.

Legend:
Assay in all cases: DTP human tumour cell line panel, 48 h
A498 = system: A498
A549 = system: A549
ACHN = system: ACHN
BT-549 = system: BT-549
COLO 205 = system: COLO 205
DU-145 = system: DU-145
EKVX = system: EKVX
HCT-15 = system: HCT-15
IGROV-1 = system: IGROV-1
M14 = system: M14
MDA-MB-231 = system: MDA-MB-231
MDA-MB-435 = system: MDA-MB-435
MDA-N = system: MDA-N
Malme-3M = system: Malme-3M
NCI-H226 = system: NCI-H226
NCI-H23 = system: NCI-H23
NCI-H460 = system: NCI-H460
NCI-H522 = system: NCI-H522
NCI/ADR-RES = system: NCI/ADR-RES
OVCAR-4 = system: OVCAR-4
OVCAR-5 = system: OVCAR-5
OVCAR-8 = system: OVCAR-8
SK-MEL-28 = system: SK-MEL-28
SK-MEL-5 = system: SK-MEL-5
SN12C = system: SN12C
TK-10 = system: TK-10
UACC-257 = system: UACC-257
UO-31 = system: UO-31
786-0 = system: 786-0
CAKI-1 = system: CAKI-1
HCT-116 = system: HCT-116
HOP-62 = system: HOP-62
HOP-92 = system: HOP-92
K562 = system: K562
KM12 = system: KM12
LOX IMVI = system: LOX IMVI
MCF7 = system: MCF7
MOLT-4 = system: MOLT-4
OVCAR-3 = system: OVCAR-3
PC-3 = system: PC-3
RPMI-8226 = system: RPMI-8226
RXF 393 = system: RXF 393
SF-268 = system: SF-268
SF-295 = system: SF-295
SK-MEL-2 = system: SK-MEL-2
SK-OV-3 = system: SK-OV-3
SNB-19 = system: SNB-19
SNB-75 = system: SNB-75
SW-620 = system: SW-620
T47D = system: T47D
CCRF-CEM = system: CCRF-CEM
HCC 2998 = system: HCC 2998
HL-60 = system: HL-60
HT-29 = system: HT-29
SR = system: SR
U-251 = system: U-251
UACC-62 = system: UACC-62
Hs-578T = system: Hs-578T
SF-539 = system: SF-539

## CC(=O)OCC1OC(n2c3c(cc(C#N)c2=S)CCCC3)C(OC(C)=O)C(OC(C)=O)C1OC(C)=O (centres undefined)
A498
  GI50: > 100 µM (inactive)
A549
  GI50: > 91.4 µM (inactive)
ACHN
  GI50: > 64.4 µM (inactive)
BT-549
  GI50: > 100 µM (inactive)
COLO 205
  GI50: > 100 µM (inactive)
DU-145
  GI50: > 100 µM (inactive)
EKVX
  GI50: 70 µM (inactive)
HCT-15
  GI50: > 100 µM
IGROV-1
  GI50: 57.8 µM (inactive)
M14
  GI50: > 100 µM (inactive)
MDA-MB-231
  GI50: > 100 µM (inactive)
MDA-MB-435
  GI50: > 100 µM (inactive)
MDA-N
  GI50: > 100 µM (inactive)
Malme-3M
  GI50: > 100 µM (inactive)
NCI-H226
  GI50: > 100 µM (inactive) and > 80 µM (inactive)
NCI-H23
  GI50: > 100 µM (inactive) and 62.5 µM (inactive)
NCI-H460
  GI50: > 100 µM (inactive) and 50.9 µM (inactive)
NCI-H522
  GI50: 42.8 µM (inactive) and 40.8 µM (inactive)
NCI/ADR-RES
  GI50: > 74.1 µM (inactive)
OVCAR-4
  GI50: > 100 µM (inactive)
OVCAR-5
  GI50: > 100 µM (inactive)
OVCAR-8
  GI50: > 60.5 µM (inactive)
SK-MEL-28
  GI50: > 100 µM (inactive)
SK-MEL-5
  GI50: > 76.4 µM (inactive)
SN12C
  GI50: > 100 µM (inactive)
TK-10
  GI50: > 100 µM (inactive)
UACC-257
  GI50: > 100 µM (inactive)
UO-31
  GI50: > 100 µM (inactive)

## COc1ccccc1-c1nc[nH]c1-c1ccccc1OC
786-0
  GI50: 35.5 µM (inactive)
A498
  GI50: 27.7 µM (inactive)
A549
  GI50: 22.6 µM (inactive)
ACHN
  GI50: 35.9 µM (inactive)
BT-549
  GI50: 33.4 µM (inactive)
CAKI-1
  GI50: 31 µM (inactive)
EKVX
  GI50: 25.6 µM (inactive)
HCT-116
  GI50: 31.8 µM (inactive)
HCT-15
  GI50: 35 µM
HOP-62
  GI50: 40.8 µM (inactive)
HOP-92
  GI50: 17.3 µM (inactive)
IGROV-1
  GI50: 29 µM (inactive)
K562
  GI50: 19.9 µM (inactive)
KM12
  GI50: 2.45 µM (inactive)
LOX IMVI
  GI50: 16.8 µM (inactive)
M14
  GI50: 19.7 µM (inactive)
MCF7
  GI50: 24.8 µM (inactive)
MDA-MB-231
  GI50: 21.7 µM (inactive)
MDA-N
  GI50: 16.1 µM (inactive)
MOLT-4
  GI50: 29.2 µM (inactive)
Malme-3M
  GI50: 11.2 µM (inactive)
NCI-H23
  GI50: 27.4 µM (inactive)
NCI-H460
  GI50: 24.3 µM (inactive)
NCI-H522
  GI50: 13.2 µM (inactive)
NCI/ADR-RES
  GI50: 22 µM (inactive)
OVCAR-3
  GI50: 24.2 µM (inactive)
OVCAR-4
  GI50: 25.8 µM (inactive)
OVCAR-5
  GI50: 37.9 µM (inactive)
PC-3
  GI50: 18.6 µM (inactive)
RPMI-8226
  GI50: 29.3 µM (inactive)
RXF 393
  GI50: 24.5 µM (inactive)
SF-268
  GI50: 14.4 µM (inactive)
SF-295
  GI50: 26 µM (inactive)
SK-MEL-28
  GI50: 33.7 µM (inactive)
SK-MEL-2
  GI50: 28.5 µM (inactive)
SK-OV-3
  GI50: 36.1 µM (inactive)
SN12C
  GI50: 38 µM (inactive)
SNB-19
  GI50: 35.2 µM (inactive)
SNB-75
  GI50: 14.6 µM (inactive)
SW-620
  GI50: 40.3 µM (inactive)
T47D
  GI50: 37.6 µM (inactive)
TK-10
  GI50: 22.5 µM (inactive)
UACC-257
  GI50: 25.3 µM (inactive)
UO-31
  GI50: 45.1 µM (inactive)

## COc1ccc2c(c1)CCC1=CC3(CCC12C)SCCS3 (centres undefined)
786-0
  GI50: 5.64 µM (inactive)
A549
  GI50: 8.05 µM (inactive)
ACHN
  GI50: 5.3 µM (inactive)
BT-549
  GI50: > 10 µM (inactive)
CAKI-1
  GI50: 7.52 µM (inactive)
CCRF-CEM
  GI50: 3.97 µM (inactive)
COLO 205
  GI50: 4.73 µM (inactive)
DU-145
  GI50: > 10 µM (inactive)
HCC 2998
  GI50: 7.8 µM (inactive)
HCT-15
  GI50: 6.38 µM
HL-60
  GI50: 2.81 µM (inactive)
HOP-62
  GI50: > 10 µM (inactive)
HOP-92
  GI50: 4.97 µM (inactive)
HT-29
  GI50: 3.68 µM (inactive)
IGROV-1
  GI50: 6.19 µM (inactive)
K562
  GI50: 3.72 µM (inactive)
KM12
  GI50: 4.27 µM (inactive)
LOX IMVI
  GI50: 7.06 µM (inactive)
M14
  GI50: 4.46 µM (inactive)
MCF7
  GI50: 3.48 µM (inactive)
MDA-MB-231
  GI50: 4.08 µM (inactive)
MDA-MB-435
  GI50: 3.74 µM (inactive)
MDA-N
  GI50: 2.59 µM (inactive)
MOLT-4
  GI50: 3.8 µM (inactive)
Malme-3M
  GI50: 5.35 µM (inactive)
NCI-H23
  GI50: 6.82 µM (inactive)
NCI-H522
  GI50: 2.99 µM (inactive)
NCI/ADR-RES
  GI50: 3.56 µM (inactive)
OVCAR-3
  GI50: 3.3 µM (inactive)
OVCAR-4
  GI50: > 10 µM (inactive)
OVCAR-8
  GI50: > 10 µM (inactive)
PC-3
  GI50: 8.26 µM (inactive)
RPMI-8226
  GI50: 3.5 µM (inactive)
SF-268
  GI50: 3.13 µM (inactive)
SF-295
  GI50: 3.87 µM (inactive)
SK-MEL-28
  GI50: 5.24 µM (inactive)
SK-MEL-5
  GI50: 6.93 µM (inactive)
SK-OV-3
  GI50: 3.27 µM (inactive)
SN12C
  GI50: 9.25 µM (inactive)
SNB-19
  GI50: > 10 µM (inactive)
SNB-75
  GI50: 0.649 µM (active)
SR
  GI50: 4.41 µM (inactive)
SW-620
  GI50: 4.56 µM (inactive)
T47D
  GI50: 6.03 µM (inactive)
TK-10
  GI50: > 10 µM (inactive)
U-251
  GI50: 9.73 µM (inactive)
UACC-257
  GI50: > 10 µM (inactive)
UACC-62
  GI50: 4.14 µM (inactive)

## COc1ccc(-c2nc3ccccc3s2)cc1OC
786-0
  GI50: 44.6 µM (inactive)
A549
  GI50: 51.6 µM (inactive)
ACHN
  GI50: 40.4 µM (inactive)
BT-549
  GI50: 15.4 µM (inactive)
CCRF-CEM
  GI50: 76.9 µM (inactive)
COLO 205
  GI50: 21.9 µM (inactive)
HCT-116
  GI50: 45.1 µM (inactive)
HCT-15
  GI50: 43.7 µM
HL-60
  GI50: > 100 µM (inactive)
HOP-62
  GI50: 67.9 µM (inactive)
HOP-92
  GI50: 6.59 µM (inactive)
HT-29
  GI50: 31.6 µM (inactive)
Hs-578T
  GI50: 13.4 µM (inactive)
K562
  GI50: > 100 µM (inactive)
KM12
  GI50: 30.2 µM (inactive)
LOX IMVI
  GI50: 27.1 µM (inactive)
M14
  GI50: 94.4 µM (inactive)
MDA-MB-231
  GI50: 19.7 µM (inactive)
MDA-MB-435
  GI50: > 100 µM (inactive)
MDA-N
  GI50: 64.4 µM (inactive)
MOLT-4
  GI50: > 100 µM (inactive)
NCI-H23
  GI50: 42.4 µM (inactive)
NCI-H460
  GI50: 20.1 µM (inactive)
NCI/ADR-RES
  GI50: 42.5 µM (inactive)
OVCAR-4
  GI50: 46.6 µM (inactive)
OVCAR-5
  GI50: > 100 µM (inactive)
OVCAR-8
  GI50: 63.4 µM (inactive)
PC-3
  GI50: 34.9 µM (inactive)
RPMI-8226
  GI50: 22.7 µM (inactive)
SF-295
  GI50: 25.8 µM (inactive)
SF-539
  GI50: 54.6 µM (inactive)
SK-MEL-28
  GI50: > 100 µM (inactive)
SK-MEL-2
  GI50: > 100 µM (inactive)
SK-MEL-5
  GI50: 10.5 µM (inactive)
SK-OV-3
  GI50: 15.5 µM (inactive)
SN12C
  GI50: 83.6 µM (inactive)
SNB-19
  GI50: 4.75 µM (inactive)
SNB-75
  GI50: > 100 µM (inactive)
SR
  GI50: > 100 µM (inactive)
SW-620
  GI50: > 100 µM (inactive)
U-251
  GI50: 53.8 µM (inactive)
UACC-257
  GI50: > 100 µM (inactive)
UACC-62
  GI50: 37.4 µM (inactive)
UO-31
  GI50: 41.7 µM (inactive)
